Consider 3 molecules from patent publication US8431561B2 (priority 2004, dated 2013).

“Also recorded” adds a separate entry of the source. Read-outs that look alike come from different tables or passages of the source.

Series [1] has as its target apoenzyme of methylmalonyl-CoA mutase (Propionibacterium freudenreichii subsp. shermanii, UniProt P11653). The note with it: cited from earlier work.
In series [2] the test system is Malpighian tubules of D. melanogaster. The format is cell-based.
Series [3] has as its system D. melanogaster. Particulars: in vivo.
Series [4] concerns VASP phosphorylation in rat C6 glioma cells. The format is cell-based.
For series [5] the following is noted: human, in vivo, iv; cited from earlier work.
In series [6] the test system is D. melanogaster. The note with it: in vivo. The source holds these as a separate data set.
For series [7], the system named is methionine synthase. The format is cell-based, baby hamster.
Series [8] concerns Chinese hamster cells (cytochrome c oxidase). The format is cell-based.
In series [9] the test system is methylmalonyl-CoA mutase. Format: cell-based, baby hamster.
The test system of series [10] is Malpighian tubules of D. melanogaster. The format is cell-based. This is another data set of the same source.
Series [11] concerns D. melanogaster. Particulars: in vivo. The source holds these as a separate data set.
Series [12] concerns VASP phosphorylation in CS-54 vascular smooth muscle cells. Format: cell-based, rat.
For series [13] the following is noted: pig, in vivo; cited from earlier work.
A further series has as its system baby chicks. Particulars: in vivo, cited from earlier work.
The test system of series [14] is methionine synthase. The format is biochemical, baby hamster.
Series [15] concerns NO (nitrite plus nitrate), C6 cells. The format is cell-based, rat.
The target in another series is haptocorrin (Homo sapiens, UniProt P20061). Particulars: cited from earlier work.
For series [16], the system named is BHK, CS-54, and C6 cells, human foreskin fibroblasts and HUVECs. The note with it: cited from earlier work.
The next series deals with transcobalamin II. The note with it: cited from earlier work.
A further series has as its system rats. Particulars: rat, in vivo, sc; cited from earlier work.
A further series concerns mouse leukemic cells. The note with it: cited from earlier work.
In series [17] the test system is human monocytes and lymphocytes. The note with it: cited from earlier work.
For series [18], the target named is methionine synthase apoenzyme (Homo sapiens, UniProt Q99707). Particulars: cited from earlier work.
The test system of series [19] is BHK, CS-54, and C6 cells, human foreskin fibroblasts and HUVECs.
The test system of series [20] is NO (nitrite and nitrate) in Malpighian tubule medium. The format is cell-based, D. melanogaster.
For a further series, the system named is Chinese hamster cells. Format: cell-based.
The test system of series [21] is NO (nitrite plus nitrate), CS-54 cells. Format: cell-based, rat.
Series [22] has as its system Malpighian tubules of D. melanogaster. The note with it: in vivo.
The conditions of series [23]: rabbit, in vivo, cited from earlier work.
The subject of series [24] is methylmalonyl-CoA mutase. The format is biochemical, baby hamster.

methionine synthase apoenzyme, sequence (Q99707 whole entry): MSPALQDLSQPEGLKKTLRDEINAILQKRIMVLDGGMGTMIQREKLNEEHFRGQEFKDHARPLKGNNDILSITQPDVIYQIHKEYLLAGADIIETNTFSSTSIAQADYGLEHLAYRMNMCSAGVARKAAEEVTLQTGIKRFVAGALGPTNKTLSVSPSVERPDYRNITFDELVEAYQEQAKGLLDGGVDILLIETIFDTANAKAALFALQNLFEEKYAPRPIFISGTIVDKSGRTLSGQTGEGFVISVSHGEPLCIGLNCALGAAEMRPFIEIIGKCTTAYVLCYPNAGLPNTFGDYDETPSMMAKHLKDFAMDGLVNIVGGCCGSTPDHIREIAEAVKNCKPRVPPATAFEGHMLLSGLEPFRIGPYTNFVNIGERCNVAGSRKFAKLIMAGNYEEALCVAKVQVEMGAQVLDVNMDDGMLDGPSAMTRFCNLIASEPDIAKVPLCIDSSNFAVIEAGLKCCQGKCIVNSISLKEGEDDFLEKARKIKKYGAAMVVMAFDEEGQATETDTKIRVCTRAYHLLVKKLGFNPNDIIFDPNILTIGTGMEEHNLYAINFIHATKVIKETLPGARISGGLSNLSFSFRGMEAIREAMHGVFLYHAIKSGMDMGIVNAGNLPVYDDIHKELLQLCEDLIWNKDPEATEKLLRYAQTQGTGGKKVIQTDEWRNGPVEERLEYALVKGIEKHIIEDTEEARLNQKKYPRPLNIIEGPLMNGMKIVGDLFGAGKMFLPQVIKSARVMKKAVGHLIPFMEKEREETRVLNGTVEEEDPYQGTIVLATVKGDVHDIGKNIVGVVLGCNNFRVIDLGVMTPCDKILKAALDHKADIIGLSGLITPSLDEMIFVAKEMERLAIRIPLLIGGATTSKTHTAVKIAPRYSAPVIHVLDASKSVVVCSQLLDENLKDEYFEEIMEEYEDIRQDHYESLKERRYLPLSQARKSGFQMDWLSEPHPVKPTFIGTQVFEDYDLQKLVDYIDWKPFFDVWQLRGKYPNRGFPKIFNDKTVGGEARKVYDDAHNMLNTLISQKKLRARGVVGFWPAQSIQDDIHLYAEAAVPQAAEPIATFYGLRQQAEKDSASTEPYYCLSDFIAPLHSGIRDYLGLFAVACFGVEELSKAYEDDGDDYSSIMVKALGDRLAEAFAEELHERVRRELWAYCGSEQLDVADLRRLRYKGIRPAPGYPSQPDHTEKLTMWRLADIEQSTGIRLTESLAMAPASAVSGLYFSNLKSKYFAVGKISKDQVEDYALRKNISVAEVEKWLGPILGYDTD
haptocorrin, sequence (P20061 24-433): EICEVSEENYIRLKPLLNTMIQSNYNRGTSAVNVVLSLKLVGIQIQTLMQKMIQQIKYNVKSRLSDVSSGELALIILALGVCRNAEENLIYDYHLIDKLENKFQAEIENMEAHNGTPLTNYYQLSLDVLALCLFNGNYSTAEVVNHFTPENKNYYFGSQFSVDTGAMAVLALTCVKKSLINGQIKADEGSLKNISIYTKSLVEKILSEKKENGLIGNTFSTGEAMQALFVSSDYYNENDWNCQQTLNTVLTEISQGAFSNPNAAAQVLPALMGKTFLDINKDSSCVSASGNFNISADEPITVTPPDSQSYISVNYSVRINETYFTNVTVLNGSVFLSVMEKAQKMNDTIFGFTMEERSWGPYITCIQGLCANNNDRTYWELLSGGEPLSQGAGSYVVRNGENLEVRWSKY
apoenzyme of methylmalonyl-CoA mutase, sequence (P11652 2-638): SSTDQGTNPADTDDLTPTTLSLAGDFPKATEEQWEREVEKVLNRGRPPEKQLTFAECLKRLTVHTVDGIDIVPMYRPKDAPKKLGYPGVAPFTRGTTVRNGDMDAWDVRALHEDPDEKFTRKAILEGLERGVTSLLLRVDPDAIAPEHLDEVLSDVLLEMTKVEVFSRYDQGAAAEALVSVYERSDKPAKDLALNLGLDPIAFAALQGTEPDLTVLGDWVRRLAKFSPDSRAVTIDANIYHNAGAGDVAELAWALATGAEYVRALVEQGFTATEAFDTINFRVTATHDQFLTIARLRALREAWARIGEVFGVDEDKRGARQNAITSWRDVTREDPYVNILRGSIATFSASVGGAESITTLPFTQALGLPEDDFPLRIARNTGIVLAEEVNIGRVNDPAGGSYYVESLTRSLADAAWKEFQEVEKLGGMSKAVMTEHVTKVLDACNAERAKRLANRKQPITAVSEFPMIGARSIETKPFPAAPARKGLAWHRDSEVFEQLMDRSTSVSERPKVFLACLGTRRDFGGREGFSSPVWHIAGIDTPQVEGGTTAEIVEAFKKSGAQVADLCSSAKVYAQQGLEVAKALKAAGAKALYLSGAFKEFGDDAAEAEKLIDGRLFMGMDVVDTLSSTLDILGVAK
apoenzyme of methylmalonyl-CoA mutase, sequence (P11653 2-728): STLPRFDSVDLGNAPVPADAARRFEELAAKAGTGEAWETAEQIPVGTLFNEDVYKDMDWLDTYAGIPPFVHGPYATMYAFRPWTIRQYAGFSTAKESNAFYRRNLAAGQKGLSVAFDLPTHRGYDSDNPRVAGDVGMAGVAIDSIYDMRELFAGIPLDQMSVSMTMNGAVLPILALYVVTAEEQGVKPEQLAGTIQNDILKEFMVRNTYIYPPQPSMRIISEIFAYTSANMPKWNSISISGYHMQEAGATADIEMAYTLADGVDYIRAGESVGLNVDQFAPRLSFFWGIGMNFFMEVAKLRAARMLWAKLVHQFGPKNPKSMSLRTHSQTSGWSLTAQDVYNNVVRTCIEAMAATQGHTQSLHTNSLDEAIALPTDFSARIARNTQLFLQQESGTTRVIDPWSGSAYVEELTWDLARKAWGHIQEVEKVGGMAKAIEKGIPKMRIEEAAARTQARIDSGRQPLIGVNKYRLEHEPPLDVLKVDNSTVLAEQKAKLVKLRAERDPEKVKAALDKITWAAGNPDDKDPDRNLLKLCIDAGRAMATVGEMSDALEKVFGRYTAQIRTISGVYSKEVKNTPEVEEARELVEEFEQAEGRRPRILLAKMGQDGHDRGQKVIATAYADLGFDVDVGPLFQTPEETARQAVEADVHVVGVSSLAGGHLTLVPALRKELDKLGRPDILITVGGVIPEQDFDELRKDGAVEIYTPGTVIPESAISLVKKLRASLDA

In the case of 5′-deoxyadenosyl-cobinamide, in [1], the “restoring function to the apoenzyme of methylmalonyl-CoA mutase” value was “inactive”.

`C/C1=C2/[N-][C@H]([C@H](CC(N)=O)[C@@]2(C)CCC(=O)NC[C@H](C)OP(=O)([O-])O[C@H]2[C@@H](O)[C@@H](n3cnc4cc(C)c(C)cc43)O[C@@H]2CO)[C@]2(C)N=C(/C(C)=C3N=C(/C=C4N=C1[C@@H](CCC(N)=O)C\4(C)C)[C@@H](CCC(N)=O)[C@]\3(C)CC(N)=O)[C@@H](CCC(N)=O)[C@]2(C)CC(N)=O.[Co+2]` (stereo in doubt) [cobalamin, reference compound]: the “effect on NO scavenging by cobinamide, tubular fluid secretion” value in series [2] was “no effect on NO scavenging by cobinamide”. In the series on D. melanogaster [3], the toxicity to flies result is “No toxicity”. Further, the “effect on NO scavenging by cobinamide, VASP phosphorylation” value in series [4] is recorded as “no effect on NO scavenging by cobinamide”. In addition, the “mean peak serum concentration” value in series [5] was “about 650 μM”. The survival rate in the series with D. melanogaster [6] is reported as 38%. Also, the “prevention of cobinamide effect on [14C]-formate incorporation” value in the series on methionine synthase [7] is given as “completely prevented”. For the same molecule, in series [8], the “effect on oxygen consumption” value is on record as “Neither cobinamide nor cobalamin alone had any effect on oxygen consumption” and the “recovery of respiration, of control non-KCN-treated cells” value came out at 42%. The “prevention of cobinamide effect on [14C]-propionic acid incorporation” value with methylmalonyl-CoA mutase [9] is reported as “completely prevented”. For the same molecule, in series [10], the basal secretion rates entry is given as “no effect on basal secretion rates” and the “resistance to KCN inhibition of tubular secretion” value is “significant resistance to the inhibitory effect of KCN; also recorded: intermediate degree of resistance to KCN”. Also, in the series with D. melanogaster [11], the flies salvaged is on record as 62%, the flies survived is listed as 44% and the mortality rate was determined as 55%.

`C/C1=C2/[N-][C@H]([C@H](CC(N)=O)[C@@]2(C)CCC(=O)NC[C@@H](C)O)[C@]2(C)N=C(/C(C)=C3N=C(/C=C4N=C1[C@@H](CCC(N)=O)C\4(C)C)[C@@H](CCC(N)=O)[C@]\3(C)CC(N)=O)[C@@H](CCC(N)=O)[C@]2(C)CC(N)=O.[Co+3]` [cobinamide]: in series [12], the “A23187-induced VASP phosphorylation” value is on record as “significantly attenuated this effect”. The “absorption across the ileum” value in [13] was “can be absorbed across the ileum independently of intrinsic factor”. Moreover, the “rate of tubular secretion” value in series [2] is recorded as “rapidly reduced tubular secretion, returning rates near to the basal state”. For the same molecule, the “growth of baby chicks” value in the series with baby chicks (po) was “did inhibit chick growth”. The “growth of baby chicks” value in the series on baby chicks is recorded as “no effect on the growth of baby chicks”. Besides, the “methionine synthase activity in BHK cell extracts” value with methionine synthase [14] is “no effect”. Also, the “nitrite plus nitrate concentrations in medium” value in series [15] is reported as “significant decrease in the nitrite plus nitrate concentrations”. On haptocorrin, the binding to haptocorrin entry is listed as “binds tightly”. In addition, in the series with D. melanogaster [3], the “detrimental effect on the flies” value is “no apparent detrimental effect” and the toxicity to flies result is “No toxicity”. Also, the “not toxic to cultured mammalian cells up to” value in series [16] is “at least 50 μM”. In series [4], the “8-pCPT-cGMP-induced VASP phosphorylation” value was “no effect” and the “PAPA-NONOate-induced VASP phosphorylation” value is recorded as “prevented the increase in VASP phosphorylation; also recorded: prevented increases in VASP phosphorylation”. Also, the “binding to transcobalamin II” value in the series on transcobalamin II is “binds poorly”. The molecule further yielded a survival rate in the series on D. melanogaster [6] of 65%. In the series with methionine synthase [7], the “decrease of [14C]-formate incorporation into purine nucleotides” value is “about 50%” and the “inhibition of in vivo methionine synthase activity” value was “minimal inhibition”. In addition, in the series with rats, the “inhibition of methionine synthase or methylmalonyl-CoA mutase” value is given as “nor did cobinamide inhibit the two mammalian cobalamin-dependent enzymes” and the toxic effects entry is “no apparent toxic effects”. Moreover, the growth inhibitory effects result in the series with mouse leukemic cells is listed as “no growth inhibitory effects”. Besides, the growth inhibitory effects entry in series [17] was “no growth inhibitory effects”. In series [8], the “effect on oxygen consumption” value is listed as “Neither cobinamide nor cobalamin alone had any effect on oxygen consumption” and the “recovery of respiration, of control non-KCN-treated cells” value is on record as “about 75%”. Moreover, the “decrease of [14C]-propionic acid incorporation into protein” value with methylmalonyl-CoA mutase [9] is recorded as “about 50%”. For the same molecule, the “restoration of methionine synthase apoenzyme activity” value in series [18] was “can restore the methionine synthase apoenzyme to full activity”. Also, in [19], the “concentration at which toxicity began to be observed” value was “about 50 μM”. Also, the “reduction of combined nitrite and nitrate” value in series [20] was “about 50%”. Besides, the “growth rate of KCN-treated cells” value in the series on Chinese hamster cells is “restored their growth rate to normal”. In addition, the “nitrite plus nitrate concentrations in medium” value in [21] was “significant decrease in the nitrite plus nitrate concentrations”. In series [10], the basal secretion rates entry is recorded as “no effect on basal secretion rates”, the “resistance to KCN inhibition of tubular secretion” value is “significant resistance to the inhibitory effect of KCN; also recorded: almost complete reversal of the toxic effects of KCN” and the tubular secretion rates result is “tubular secretion rates increased significantly”. The “binding to serum albumin” value in the series on serum albumin is “binds tightly to serum albumin”. Further, in the series with D. melanogaster [11], the “HCN exposure time without any significant increase in mortality” value is “up to 15 min”, the flies salvaged was 94%, the flies survived is reported as 65% and the “flies surviving / recovered by 1 h” value was “approximately 90%”. In the series with D. melanogaster [11], the mortality rate turned out to be 18%, the “outcome of prolonged HCN exposure” value is listed as “death of all flies” and the prevention of death entry is “as effective in preventing death under these conditions as it was when administered prior to cyanide exposure”. In addition, the “reduction of LPS-stimulated tubular secretion rates compared to control flies” value in [22] is recorded as “about 50%”. Moreover, in [23] (iv), the “release from the liver, t?” value is roughly 150 h. For the same molecule, the liver retention entry in series [23] was “retained more by the liver than cobalamin”. Further, in the series with methylmalonyl-CoA mutase [24], the “methylmalonyl-CoA mutase activity in BHK cell extracts” value was “no effect”.
